The values that follow come from patent publication US20220334127A1, “IN VITRO METHOD FOR OBTAINING CLINICAL DATA IN PATIENTS SUFFERING FROM AN INFLAMMATORY DISEASE” (FUNDACIÓN PARA LA FORMACIÓN E INVESTIGACIÓN SANITARIAS DE …, priority 2019, published 2022).

Data set [1] relates to NLRP3 inflammasome. The data set can be described thus: IL-1β release from BMDMs pre-treated, washed, LPS-primed and stimulated with nigericin. The data set is classed as cell-based, mouse. The note with it: P2X7-receptor-deficient macrophages (FIG. 6c). As to the method: FIG. 6. P2X7 receptor stimulation induces an impairment of the NLRP3 inflammasome in monocytes. (a-b) Percentage of monocytes with ASC-specks (a) and release of […] from PBMCs (b) isolated from healthy donor blood samples treated with ATP (3 mM, 30 min; ATP-pre), then washed and primed with or without LPS (1 μg/ml, 2 h) and then treated for 20 min with ATP (3 mM; ATP-post) or nigericin (10 μM) as indicated. (c) IL-1β release from wild type or P2rx7^−/− BMDMs treated as in a, but with 4 h LPS priming and 30 min of ATP or nigericin. (d) IL-1β release from wild type or P2rx7^−/− BMDMs treated for 30 min with antimycin A (5 μM) or FCCP (1 μM) and then washed and primed with LPS (1 μg/ml, 4 h) and then stimulated with nigericin (10 μM, 30 min) as indicated. (e) Expression of Nrlp3 and Illb genes analyzed by quantitative PCR from wild type or P2rx7^−/− BMDMs treated with ATP (3 mM, 30 min; ATP-pre), then washed and primed with or without LPS (100 ng/ml, 4 h). (f) Kaplan-Meier representation of wild type (top) or P2rx7^−/− (bottom) mice survival after sham operation (dotted line), or CLP operation (continuous line); some mice groups were i.p. injected with ATP (0.5 mg/g) 30 min before operation (dashed lines). Wild type CLP n=10, CLP+ATP n=8, sham n=4, sham+ATP n=4; P2rx7^−/− CLP n=4, CLP+ATP n=6, sham n=3. (g) IL-1β from peritoneal lavage (left) or bacterial load in blood (right) from wild type sham, CLP or CLP+ATP mice after 24 h. Each dot represents a single independent experiment (c,d), a sample from an individual healthy donor (a,b,e) or a single mouse (g); average±standard error is represented in panels a-e,g; *p<0.05; **p<0.01; ns, no significant difference (p>0.05); Mann-Whitney test was used for a,b,d,e; Kruskal-Wallis test was used for c; Long-rank test for f.
FIG. 7. Mitochondrial dysfunction mediates P2X7 receptor induced NLRP3 inflammasome impairment. (a) Mitochondrial membrane depolarization in BMDMs treated with ATP (3 mM, 30 min), then washed out and incubated for the indicated times in the absence or presence of LPS (1 μg/ml) as indicated. […] (e) Representative histogram plot of HIF-1α staining (left) or quantification of HIF-1α mean intensity fluorescence increase (ΔMFI, right) in monocytes isolated from healthy donor blood samples and treated or not with ATP (1 mM, 30 min) in the presence or absence of AZ11645373 (10 μM) or PDTC (10 μM), and then washed and cultured for 2 h; non-stained monocytes (light grey, left). […] (g) Expression of HIF1A gene analyzed by quantitative PCR from control surgery group and septic patients PBMCs; septic patients are separated into NLRP3 non-immunocompromised (grey bar) and immunocompromised (black bar). […]

In data set [2] the test system is HIF-1α. The data set can be described thus: HIF-1α staining in human monocytes by flow cytometry. In kind it is cell-based. The note with it: ATP 1 mM 30 min, washed, cultured 2 h (FIG. 7e). On the technique in general: In flow cytometry, cells or beads pass a laser one at a time.
Description: Human peripheral blood mononuclear cells (PBMCs) were isolated from blood within one hour after extraction using Ficoll histopaque 1077 (Sigma-Aldrich). […] Cells were treated with ATP (Sigma-Aldrich), antimycin A (Sigma-Aldrich) or FCCP (Sigma-Aldrich) in the presence or absence of PDTC (Sigma-Aldrich) or echinomycin (Sigma-Aldrich) in E-total buffer (147 mM NaCl, 10 mM HEPES, 13 mM glucose, 2 mM CaCl2), 1 mM MgCl2, and 2 mM KCl) and then washed and stimulated with E. coli LPS O55:B5 in their respective complete media. […] After LPS treatment, cells were incubated with P2X7 modulating nanobodies, the specific P2X7 receptor antagonist A438079 or AZ11645373 (Tocris), and then subsequently stimulated with ATP or nigericin (Sigma-Aldrich) in E-total buffer. Times and concentrations for the reagents used are specified in the figure legends.
HIF-1α expression was detected in CD14^+ monocytes using Alexa Fluor-647 mouse anti-human HIF-1α (BD Biosciences, Clone 54) at 1:1000 dilution.
The nature of data set [3]: Cell death (LDH assay). The data set is classed as cell-based. Here is the method:
Presence of LDH in cell-free supernatants was measured using the Cytotoxicity Detection kit (Roche) following the manufacturer's instructions.

Data set [4] has as its system P2X7 receptor. In words: Cecal ligation and puncture (CLP) sepsis model with i.p. ATP before operation. In kind it is in vivo, mouse. As to conditions: wild type mice, ATP pre-treatment (FIG. 6g). As to the method:
FIG. 6. P2X7 receptor stimulation induces an impairment of the NLRP3 inflammasome in monocytes. (a-b) Percentage of monocytes with ASC-specks (a) and release of […] from PBMCs (b) isolated from healthy donor blood samples treated with ATP (3 mM, 30 min; ATP-pre), then washed and primed with or without LPS (1 μg/ml, 2 h) and then treated for 20 min with ATP (3 mM; ATP-post) or nigericin (10 μM) as indicated. (c) IL-1β release from wild type or P2rx7^−/− BMDMs treated as in a, but with 4 h LPS priming and 30 min of ATP or nigericin. […] (e) Expression of Nrlp3 and Illb genes analyzed by quantitative PCR from wild type or P2rx7^−/− BMDMs treated with ATP (3 mM, 30 min; ATP-pre), then washed and primed with or without LPS (100 ng/ml, 4 h). […]
The University of Murcia Animal Research Ethical Committee approved animal procedures (ref 5/2014) and then the Animal Health Service of the General Directorate of Fishing and Farming of the Council of Murcia (Servicio de Sanidad Animal, Dirección General de Ganaderia y Pesca, Consejeria de Agricultura y Agua Región de Murcia) approved animal procedures with ref A1320140201. […] Buprenorphine (0.3 mg/kg) was administered intraperitoneally at the time of surgery and mice were monitored continuously until recovery from anesthesia. […] Then the number of bacterial colonies was counted and expressed as CFU/ml of serum.

In data set [5] the test system is monocytes. In words: Mitochondrial ROS production (MitoSOX) in human monocytes. As to conditions: healthy donor monocytes, ATP 3 mM 30 min (FIG. 5f). The data set is classed as cell-based.

Turning to `Nc1ncnc2c1ncn2[C@@H]1O[C@H](COP(=O)(O)OP(=O)(O)OP(=O)(O)O)[C@@H](O)[C@H]1O` [ATP, adenosine triphosphate], in data set [1], the “NLRP3 inflammasome inhibition when ATP applied before LPS priming” value is listed as “did not present NLRP3 inflammasome inhibition”. In data set [2], the “HIF-1α expression by the agent itself” value is listed as “increased”. Moreover, the cell death entry in data set [3] is “did not induce cell death”. In addition, the “bacterial load in the blood” value in data set [4] (24 h after CLP) is listed as “increased”. For the same compound, the “release of IL-1β into the mouse peritoneum” value in data set [4] (peritoneal lavage 24 h after CLP) is on record as “decreased”. In data set [5], the “mitochondrial ROS production” value is recorded as “an increase in mitochondrial ROS production”.
